Source: patent EP0193283A1, “Thiazoloquinoline derivatives, process for their preparation and compositions containing them” (BEECHAM GROUP PLC, priority 1985, dated 1986)
In brackets after ≈: the same amount, converted by molar mass.

Legend:
Assay type in all cases: cell-based
[1] = system: M. bovis NCTC 10131; assay: microbe, parasite or virus in culture; settings: NCTC10131
[2] = system: M. gallisepticum S6; assay: In vitro antimycoplasmal MIC; settings: Mycoplasmoides gallisepticum, Friis' agarose medium or SP4 medium with 0.65% agarose
[3] = system: M. hyopneumoniae x 5 strains; assay: In vitro antimycoplasmal MIC; settings: Mesomycoplasma hyopneumoniae, X5STRAINS, Friis' agarose medium or SP4 medium with 0.65% agarose
[4] = system: M. pneumoniae x vs 9 strains; assay: In vitro antimycoplasmal MIC; settings: Mycoplasmoides pneumoniae, XVS9STRAINS, Friis' agarose medium or SP4 medium with 0.65% agarose
[5] = system: S.aureus M12; assay: Antibacterial MIC on agar; settings: Staphylococcus aureus
[6] = system: M. hyosynoviae ATCC 25591; assay: In vitro antimycoplasmal MIC; settings: Friis' agarose medium or SP4 medium with 0.65% agarose
[7] = system: M. meleagridis 17529; assay: In vitro antimycoplasmal MIC; settings: Friis' agarose medium or SP4 medium with 0.65% agarose
[8] = system: S.agalactiae SPAI; assay: Antibacterial MIC on agar; settings: Streptococcus agalactiae
[9] = system: M. dispar NCTC 10125; assay: In vitro antimycoplasmal MIC; settings: Friis' agarose medium or SP4 medium with 0.65% agarose
[10] = system: M. synoviae ATCC 25204; assay: In vitro antimycoplasmal MIC; settings: Mycoplasmopsis synoviae, ATCC25204, Friis' agarose medium or SP4 medium with 0.65% agarose
[11] = system: M. hyorhinis ATCC 23234; assay: In vitro antimycoplasmal MIC; settings: Mesomycoplasma hyorhinis, ATCC23234, Friis' agarose medium or SP4 medium with 0.65% agarose
[12] = system: M. iowae B11; assay: In vitro antimycoplasmal MIC; settings: Friis' agarose medium or SP4 medium with 0.65% agarose
[13] = system: S.dysgalactiae FRO 7A; assay: Antibacterial MIC on agar; settings: Streptococcus dysgalactiae, FRO7A

## CCNCC1CCN(c2cc3c(cc2F)c(=O)c(C(=O)O)c2scc(C)n23)C1 (stereo not shown) [Example 1, 8-[3-[(Ethylamino)methl]-1-pyrrolidinyl]-7-fluoro-1-methyl-5-oxo-5H-thiazolo[3,2-a]-quinoline-4-carboxylic acid]
[1]
  MIC: 0.1 ng/mL (≈ 0.248 nM)
[2]
  MIC: 0.025 ng/mL (≈ 0.062 nM)
[3]
  MIC: 0.001 ng/mL (≈ 0.00248 nM)
[4]
  MIC: 0.13 ng/mL (≈ 0.322 nM)
[5]
  MIC: 120 ng/mL (≈ 297 nM)
[6]
  MIC: 0.05 ng/mL (≈ 0.124 nM)
[7]
  MIC: 0.025 ng/mL (≈ 0.062 nM)
[8]
  MIC: 1000 ng/mL (≈ 2480 nM)
[9]
  MIC: 0.025 ng/mL (≈ 0.062 nM)
[10]
  MIC: 0.1 ng/mL (≈ 0.248 nM)
[11]
  MIC: 0.05 ng/mL (≈ 0.124 nM)
[12]
  MIC: 0.025 ng/mL (≈ 0.062 nM)
[13]
  MIC: 500 ng/mL (≈ 1240 nM)
